Laboratory results as given in PMC11266932, “Enhanced absorption of prenylated cinnamic acid derivatives from Brazilian green propolis by turmeric in humans and rats” (Food Science & Nutrition, 2024).
Read-outs that look alike come from different tables or passages of the source.

Columns and labels:
MDCK II cell monolayer = assay: Bidirectional transport assay across parent MDCK II cell monolayer; type: in vitro ADME, canine; conditions: 10 μM; for Papp MDCK II A to B / Papp MDCK II B to A: 120 min, mean ± SE, n = 2
Protocol: (§1) The Madin‐Darby canine kidney (MDCK II) cell line and MDCK II cells overexpressing multidrug resistance 1 (MDR1) or breast cancer resistance protein (BCRP) were purchased from the Netherlands Cancer Institute (Amsterdam, Netherlands) and SOLVO Biotechnology (Szeged, Hungary), respectively. The cell lines were routinely cultured in Dulbecco's modified Eagle's medium (DMEM) containing 10% fetal bovine serum and 1% penicillin/streptomycin at 37°C in 5% CO2. All cells were seeded in a feeder tray at a density of 3–6 × 10^4 cells/well and grown for 3–4 days. On the day of the transport study, cell monolayers were washed with Hanks' balanced salt solution (HBSS) buffer containing 0.1% BSA (pH 7.4) and incubated at 37°C for 20 min. Artepillin C and drupanin dissolved in DMSO (10 mM) were added to the transport buffer (HBSS containing 10 mM HEPES, 0.2% glucose, 0.1% BSA, pH 7.4) to a final concentration of 10 μM and then loaded into the apical or basolateral chamber. After 120 min of incubation, 150 μL of the aliquots were collected from the donor and receiver chambers and mixed with an equal volume of 50% methanol. After centrifugation at 3000 rpm for 10 min at 4°C, the supernatants were filtered and subjected to LC–MS/MS analysis.
(§2) The in vitro samples were analyzed using HPLC (LC‐20A, Shimadzu, Kyoto, Japan) with a reversed‐phase column (Inertsil ODS‐3, 2.1 × 33 mm, ID. 3 μm, GL Sciences, Tokyo, Japan) held at 40°C. The mobile solvents used were water with 10 mM ammonium acetate (pH 4.0, A) and methanol (B) pumped at a flow rate of 0.4 mL/min. The following gradient was employed: 10%–90% B (0–0.5 min), 90% B (0.5–2.5 min), and 10% B (2.5–4 min). The eluent was monitored using a triple quadrupole mass spectrometer (API 4000, AB Sciex, Framingham, MA, USA) incorporating an electrospray ion source (ESI) operating in the multiple reaction monitoring mode. The ESI source was operated in negative ionization mode at 600°C with a spray voltage of −4.5 kV. The curtain gas (nitrogen), collision gas (nitrogen), nebulizer gas (whole air), and drying gas (whole air) were set at 40, 5, 50, and 70 psi, respectively. […] Artepillin C and drupanin were diluted in 50% methanol to concentrations of 1.6, 3.2, 8, 40, 200, 1000, and 2000 nM and were used as external standards. Sulfaphenazole (0.2 μM) was used as an internal standard.
(§3) The apparent permeability coefficients (Papp) for both directions, from the apical side to the basolateral side (A to B) and from the basolateral side to the apical side (B to A) in the cell monolayer, were calculated using the following equation: (1) Papp=dQ/dt/A×C0 where dQ/dt is the permeation rate (nmol/s), A is the membrane area (cm^2), and C0 is the initial concentration of the compound in the donor compartment (nM). The efflux ratios (ER) in the B‐to‐A and A‐to‐B directions were determined using the following equation: (2) ER=PappBtoA/PappAtoB

[1] = as above; type: in vitro ADME, canine; conditions: dog; for efflux ratio at 120 min, 10 μM: MDCK, pH 7.4, 10 μM, Papp B to A / Papp A to B, read-out: Flux ratio (MDCK II) (efflux ratio, ER); for Papp A→B at 120 min, 10 μM / Papp B→A at 120 min, 10 μM: mean ± SE, n = 2
Protocol: as §1, §2, §3

MDR1 (P-gp) = molecular target: T1, MDR1 (P-gp) (Homo sapiens, UniProt P08183); assay: Bidirectional transport assay across MDCK II-MDR1 cell monolayer; type: in vitro ADME; conditions: dog, MDCK-MDR1, pH 7.4
T1 construct: host or cells: MDCK II (Madin-Darby canine kidney) cells overexpressing MDR1
Protocol: as §1, §2, §3
(§4) Net flux ratios were calculated by dividing the ER obtained from MDCK II‐MDR1 (or BCRP) cells by that obtained from the parent MDCK II cells.

BCRP = molecular target: T2, BCRP (Homo sapiens, UniProt Q9UNQ0); assay: Bidirectional transport assay across MDCK II-BCRP cell monolayer; type: in vitro ADME; conditions: dog, pH 7.4
T2 construct: host or cells: MDCK II (Madin-Darby canine kidney) cells overexpressing BCRP
T2 sequence (Q9UNQ0 1-655): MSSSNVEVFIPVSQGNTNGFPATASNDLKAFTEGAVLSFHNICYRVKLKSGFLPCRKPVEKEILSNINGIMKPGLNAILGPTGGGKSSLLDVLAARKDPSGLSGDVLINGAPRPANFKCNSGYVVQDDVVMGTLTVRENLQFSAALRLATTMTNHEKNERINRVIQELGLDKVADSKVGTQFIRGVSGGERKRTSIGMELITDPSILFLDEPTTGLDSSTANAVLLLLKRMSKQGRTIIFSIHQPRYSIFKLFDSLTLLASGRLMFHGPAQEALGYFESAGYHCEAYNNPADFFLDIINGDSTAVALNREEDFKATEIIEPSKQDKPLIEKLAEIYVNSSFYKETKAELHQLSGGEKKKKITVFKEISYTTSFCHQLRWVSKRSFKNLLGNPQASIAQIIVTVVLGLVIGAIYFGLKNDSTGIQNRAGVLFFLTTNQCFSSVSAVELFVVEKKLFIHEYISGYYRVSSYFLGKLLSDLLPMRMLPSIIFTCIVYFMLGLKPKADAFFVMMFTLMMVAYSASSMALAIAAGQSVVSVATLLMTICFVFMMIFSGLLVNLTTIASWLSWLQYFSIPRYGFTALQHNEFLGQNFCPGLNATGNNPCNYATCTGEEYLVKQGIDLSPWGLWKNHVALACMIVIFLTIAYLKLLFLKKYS
Protocol: as §1, §2, §3, §4

[2] = parent cells of the BCRP experiment (Table 3)
[3] = parent cells of the MDR1 experiment (Table 2)
[4] = MDCK-MDR1, pH 7.4, parent cells of the MDR1 experiment (Table 2)
[5] = pH 7.4, parent cells of the BCRP experiment (Table 3)
[6] = 10 μM, 120 min, mean ± SE, n = 2

T1 sequence (P08183 whole entry): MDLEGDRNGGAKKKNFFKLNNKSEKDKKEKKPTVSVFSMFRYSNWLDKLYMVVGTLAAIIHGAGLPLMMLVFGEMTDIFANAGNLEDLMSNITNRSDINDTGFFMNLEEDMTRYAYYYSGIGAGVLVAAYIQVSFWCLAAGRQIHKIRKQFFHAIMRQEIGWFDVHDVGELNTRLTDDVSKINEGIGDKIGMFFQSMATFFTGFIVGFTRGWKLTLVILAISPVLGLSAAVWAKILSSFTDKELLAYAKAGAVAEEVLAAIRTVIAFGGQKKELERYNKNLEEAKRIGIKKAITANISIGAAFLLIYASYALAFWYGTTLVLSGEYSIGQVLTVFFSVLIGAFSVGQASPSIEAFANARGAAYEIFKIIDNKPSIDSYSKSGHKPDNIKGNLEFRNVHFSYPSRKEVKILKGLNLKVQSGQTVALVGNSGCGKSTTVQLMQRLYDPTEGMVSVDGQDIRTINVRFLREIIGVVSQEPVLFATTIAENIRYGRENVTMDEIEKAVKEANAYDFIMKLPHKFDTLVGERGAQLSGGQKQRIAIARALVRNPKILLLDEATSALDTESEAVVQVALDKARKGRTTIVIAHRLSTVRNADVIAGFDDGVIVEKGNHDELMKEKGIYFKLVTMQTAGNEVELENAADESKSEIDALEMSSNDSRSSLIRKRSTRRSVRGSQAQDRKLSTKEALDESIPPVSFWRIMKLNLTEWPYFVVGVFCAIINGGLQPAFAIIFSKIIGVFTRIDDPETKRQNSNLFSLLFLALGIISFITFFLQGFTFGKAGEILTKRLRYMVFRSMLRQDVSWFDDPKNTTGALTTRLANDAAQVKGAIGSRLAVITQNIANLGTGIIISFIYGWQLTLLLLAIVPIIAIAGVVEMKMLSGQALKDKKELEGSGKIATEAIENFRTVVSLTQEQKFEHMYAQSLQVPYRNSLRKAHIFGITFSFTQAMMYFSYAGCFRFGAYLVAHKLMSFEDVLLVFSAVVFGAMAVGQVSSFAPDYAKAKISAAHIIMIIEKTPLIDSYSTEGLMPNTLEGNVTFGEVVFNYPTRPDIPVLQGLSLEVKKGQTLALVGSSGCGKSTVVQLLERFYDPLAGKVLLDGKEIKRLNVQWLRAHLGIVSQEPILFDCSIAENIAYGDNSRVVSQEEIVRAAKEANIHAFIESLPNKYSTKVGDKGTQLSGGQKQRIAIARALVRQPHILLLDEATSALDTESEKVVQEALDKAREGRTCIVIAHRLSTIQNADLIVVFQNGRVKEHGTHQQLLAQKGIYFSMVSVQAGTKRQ

CC(C)=CCc1cc(/C=C/C(=O)O)cc(CC=C(C)C)c1O [artepillin C]
Papp MDCK II A to B (MDCK II cell monolayer; [2]): 13.0 ± 0.8 10^−6 cm/s
Papp MDCK II B to A (MDCK II cell monolayer; [2]): 10.8 ± 0.1 10^−6 cm/s
Papp MDCK II A to B (MDCK II cell monolayer; [3]): 14.0 ± 0.7 10^−6 cm/s
Papp MDCK II B to A (MDCK II cell monolayer; [3]): 11.2 ± 1.2 10^−6 cm/s
Flux ratio (MDCK II) (efflux ratio, ER) (MDCK II cell monolayer; Papp B to A / Papp A to B, Table 2 experiment): 0.8

CC(C)=CCc1cc(/C=C/C(=O)O)ccc1O [drupanin]
efflux ratio at 120 min, 10 μM ([1]; Table 2 experiment): 0.9
efflux ratio at 120 min, 10 μM ([1]; Table 3 experiment): 0.8
Papp A→B at 120 min, 10 μM [1, 4]: 11.1 ± 0.2 ×10⁻⁶ cm/s
Papp B→A at 120 min, 10 μM [1, 4]: 9.9 ± 0.2 ×10⁻⁶ cm/s
Papp A→B at 120 min, 10 μM [1, 5]: 11.6 ± 0.1 ×10⁻⁶ cm/s
Papp B→A at 120 min, 10 μM [1, 5]: 8.9 ± 0.4 ×10⁻⁶ cm/s
Papp A→B at 120 min, 10 μM (MDR1 (P-gp); [6]): 13.3 ± 1.4 ×10⁻⁶ cm/s
Papp B→A at 120 min, 10 μM (MDR1 (P-gp); [6]): 11.2 ± 0.2 ×10⁻⁶ cm/s
efflux ratio at 120 min, 10 μM (MDR1 (P-gp); read-out: Flux ratio (MDCK II‐MDR1) (efflux ratio, ER)): 0.8
Papp A→B at 120 min, 10 μM (BCRP; [6]): 1.3 ± 0.1 ×10⁻⁶ cm/s
Papp B→A at 120 min, 10 μM (BCRP; [6]): 20.9 ± 0.1 ×10⁻⁶ cm/s
efflux ratio at 120 min, 10 μM (BCRP; read-out: Flux ratio (MDCK II‐BCRP) (efflux ratio, ER)): 15.7
